The source of these data is US10561642B2, “Treatment of Zika virus infections using alpha-glucosidase inhibitors” (FLORIDA STATE UNIVERSITY RESEARCH FOUNDATION, INC., priority 2016, dated 2020).

The test system of experiment [1] is Japanese encephalitis virus. The settings on record: compared with Dengue virus; cited from earlier work.
Experiment [2] has as its system Japanese encephalitis virus. The note with it: upon treatment; cited from earlier work.
Experiment [3] concerns FSS-13025 strain of ZIKV. The experiment in a line: Anti-ZIKV activity in SNB-19 cells, ZIKV NS1 expression by Western blot. The note with it: 100 μm, 500 μm and 1 mM, treated one hour prior to inoculation (MOI=1), harvested 24 hours post-infection. It counts as cell-based, Zika virus. Here is the method:
FIG. 1. Castanospermine as anti-ZIKV compound. Castanospermine was screened for antiviral activity against ZIKV infection. Glioblastoma SNB-19 cells were treated with castanospermine at the indicated concentrations one hour prior to inoculation with the FSS-13025 strain of ZIKV (at MOI=1). Cells were harvested 24 hours post-infection and analyzed by Western blot for ZIKV-NS1 or GAPDH.
Cells of the glioblastoma SNB-19 cell line were maintained at 37° C. in 5% CO2 in […], 1× penicillin/streptomycin, and 10% fetal bovine serum (Invitrogen). SNB-19 cells were treated with castanospermine at increasing concentrations (100 μm, 500 μm, and 1 mM) one hour prior to inoculation with the FSS-13025 strain of ZIKV. Cells were harvested 24 hours post-infection and analyzed by Western blot for ZIKV-NS1 or GAPDH.
(A western blot detects proteins with antibodies after separation by electrophoresis.)

As for `CCCCCCCCCN1C[C@H](O)[C@@H](O)[C@H](O)[C@H]1CO` [NN-DNJ, N-nonyl-deoxynojirimycin], the “Effect on cell infection by Japanese encephalitis virus” value in experiment [1] was “suppressed cell infection but to a lesser extent than with Dengue virus”. Further, the “Mortality rate among mice given a lethal dose of Japanese encephalitis virus” value in experiment [2] is given as “decreased mortality rate”. Turning to `O[C@H]1[C@H](O)[C@@H](O)CN2CC[C@H](O)[C@H]12` [castanospermine, (1S,6S,7R,8aR)-Tetrahydroxyoctahydroindolizine], the “Inhibition of ZIKV infection (ZIKV protein NS1 expression)” value in experiment [3] is reported as “significantly inhibit ZIKV infection”.
